{"source": "paper PMC12801355", "about": "“Peptide Amphiphiles Hitchhike on Endogenous Biomolecules for Enhanced Cancer Imaging and Therapy” (Advanced Materials (Deerfield Beach, Fla.), 2025)", "key": {"[1]": {"system": "small intestinal adenomas and colon polyps", "experiment": "Detection of intestinal lesions in APC^min mice", "assay_type": "in vivo, mouse", "method": "(§1) For tumor accumulation studies in subcutaneous (HCT‐116, A375, TRAMP‐C2, MC38, LLC1, RG2, PDX cell lines, wild type or SR‐B1 ‐/‐ TRAMP‐C2, and wild type or LDL‐R ‐/‐ HeLa), intradermal (A375), or fat pad (4T1 and MCF‐7) tumors, cells were implanted as described above. When the tumors reached a size around ≈0.3–1 cm, mice were injected intravenously with 100 µL of ICG conjugated PAs (in PBS, 0.5 mM) or free ICG (in PBS, 0.5 mM). After probe injections, mice were imaged using the IVIS Spectrum (PerkinElmer) with excitation and emission wavelengths of 745 and 820 nm, respectively, at the specified time points. Living Image (PerkinElmer) software was used for all analyses. For MMTV mice experiments, mice were injected intravenously weekly with SA‐E (100 µL PBS, 0.5 mM) between 71 and 85 days of age and imaged 2 days later in the IVIS. […] SA‐E was injected intravenously (100 µL PBS, 0.5 mM), 2 days later the intestinal tissue was harvested, washed, and analyzed in the IVIS for ICG."}, "[2]": {"system": "4T1 tumor", "experiment": "Tumor accumulation, live IVIS imaging", "assay_type": "in vivo, mouse", "method": "as §1"}, "[3]": {"system": "4T1 mouse breast cancer cells", "experiment": "Cellular uptake of Cy5 labeled PAs", "assay_type": "cell-based", "details": "10 µM Cy5‐PA, 2 h incubation at 37 °C", "method": "To compare the uptake of SA‐E and SA‐K, 1 × 10^5 4T1 cells were grown to near confluency (1–2 days) in 96 well plates with black walls and flat glass bottom. 100% Cy5 conjugated PAs (20 or 10 µM) or 10% Cy5 conjugated PA micelles (10 µM Cy5‐PAs mixed with 90 µM maleimide blocked labeled PAs) were preincubated in 10% FBS containing RPMI for 30 min at 37 °C, wells were aspirated, and 100 µL of media containing PAs were added. The plate was incubated for 30 min for the experiments with 100% Cy5 conjugated PAs. Media were aspirated, wells were washed 3x with 150 µL sterile PBS, and then 100 µL RPMI containing 10% FBS was added to each well. The plate was incubated for 1 h at 37 °C. For 10% and 100% Cy5 micelle uptake comparison, plate was incubated for 2 h at 37 °C with PAs. Then, media containing PAs were aspirated and washed with PBS, as above. Cell nuclei were stained with Hoechst (1:5000 dilution in PBS) for 5 min and then removed. 100 µL of phenol red free RPMI containing 10% FBS was added to each well. […] The microscope incubator was preheated for 30 min to reach 35 °C prior to imaging.\nTo study the uptake of SA‐E or SA‐K micelles (10% or 100% Cy5 micelles) or No‐SA over time, 4T1 cells were grown to near confluency in a 96 well plate as described above. Cy5 conjugated 100% Cy5 conjugated PAs (20 µM), 10% Cy5 conjugated PAs (10 µM Cy5), or No‐SA (20 µM) or were preincubated in 10% FBS containing RPMI for 30 min at 37 °C. Cell nuclei were stained with Hoechst stain as above. Cell membranes were stained (CellBrite 488, 1:1000 in 10% FBS containing RPMI) for 30 min at 37 °C. Wells were aspirated, and 100 µL of PAs were added to the wells for ≈1 min. Wells were washed with sterile PBS (3x, 150 µL), and Confocal images were taken at different time points (up to 2 h) after PA or No‐SA addition as described above using a 60x objective."}, "[4]": {"system": "4T1 cells", "experiment": "Uptake of SA‐E in the presence of inhibitors", "assay_type": "cell-based, mouse", "details": "inhibitor 10 µM, 20 min pre‐incubation, Cy5 SA‐E 20 µM, FBS free media", "method": "To explore the effect of serum proteins and different inhibitors on the cellular uptake of SA‐E, 4T1 cells were grown to near confluency in 96 well plates, as described above. For cellular uptake mechanism studies, the growth media (RPMI containing 10% FBS) was exchanged for 100 µL of FBS free media, then returned to the incubator. Inhibitors (brefeldin A, bromsulphalein, chlorpromazine hydrochloride, cis‐ACBD, filipin, heparin, methyl‐β‐cyclodextrin, or wortmannin) were made in FBS free media at a concentration of 1 mM. Then, 1 µL of media containing inhibitors was added to wells, so that the final drug concentration in each well was 10 µM. The plate was returned to the incubator for 20 min. After incubation, Cy5 conjugated SA‐E was added to all wells such that the final concentration was 20 µM per well. The plate was returned to the incubator for 30 min. Wells were aspirated and washed with PBS as above. 100 µL of FBS free media was added, and the plate was returned to the incubator for 1 h. Finally, Hoechst staining and fluorescence imaging were performed using a Leica Thunder DMi8 fluorescent microscope, as described above."}, "[5]": {"system": "HeLa human cervical cancer cells", "experiment": "Uptake of SA‐E by wild type or LDL‐R knockout cells", "assay_type": "cell-based", "details": "Cy5 SA‐E 20 µM, 10% FBS DMEM", "method": "For LDL‐R studies, 2 × 10^5 wild type or LDL‐R‐/‐ HeLa human cervical cancer cells were grown to near confluency in 96 well plates with black walls and flat glass bottom. Cy5 conjugated SA‐E (20 µM) was preincubated in DMEM containing 10% FBS for 30 min at 37 °C. Wells were aspirated, and 100 µL of the SA‐E containing DMEM was added. The plate was incubated for 30 min, as above. The wells were washed with sterile PBS, as above, media was added, and the plate was returned to the incubator for 1 h. Wells were aspirated, and nuclei were stained with Hoechst as above. Wells were aspirated, and 100 µL of phenol red free DMEM with 10% FBS was added to each well. Cells were then imaged for Cy5 conjugated SA‐E with a Zeiss Apotome 3 microscope at 20x and 63x objectives using Zen software."}, "[6]": {"details": "4T1 tumor‐bearing mice, 50 nmol IV"}}, "note": "Where a SMILES comes first, the peptide text is derived from it. The star is where a group is joined. Palmitoyl = CCCCCCCCCCCCCCCC(=O)*", "data": [{"smiles": "CCCCCCCCCCCCCCCC(=O)NCC(=O)NCC(=O)NCC(=O)N[C@@H](Cc1c[nH]cn1)C(=O)N[C@@H](C)C(=O)N[C@@H](C)C(=O)N[C@@H](CC(N)=O)C(=O)NCC(=O)N[C@@H](CCC(=O)O)C(=O)N[C@@H](CCC(=O)O)C(=O)N[C@@H](CS)C(=O)N[C@@H](CCC(=O)O)C(=O)O", "note": "[SA‐E] (Palmitoyl-GGGHAANGEECE-OH)", "values": [{"measurement": "colon polyps detected", "setting": "[1]; 3 APC^min mice", "result": "4/4"}, {"measurement": "small intestinal adenomas detected", "setting": "[1]; 3 APC^min mice", "result": "71/71"}, {"measurement": "Colon, SA-E Negative lesions", "setting": "[1]; mouse 1, of 2 lesions", "result": 0}, {"measurement": "Colon, SA-E Positive lesions", "setting": "[1]; mouse 1, of 2 lesions", "result": 2}, {"measurement": "Small Intestine, SA-E Negative lesions", "setting": "[1]; mouse 1, of 15 lesions", "result": 0}, {"measurement": "Small Intestine, SA-E Positive lesions", "setting": "[1]; mouse 1, of 15 lesions", "result": 15}, {"measurement": "Colon, SA-E Negative lesions", "setting": "[1]; mouse 2, of 1 lesion", "result": 0}, {"measurement": "Colon, SA-E Positive lesions", "setting": "[1]; mouse 2, of 1 lesion", "result": 1}, {"measurement": "Small Intestine, SA-E Negative lesions", "setting": "[1]; mouse 2, of 22 lesions", "result": 0}, {"measurement": "Small Intestine, SA-E Positive lesions", "setting": "[1]; mouse 2, of 22 lesions", "result": 22}, {"measurement": "Colon, SA-E Negative lesions", "setting": "[1]; mouse 3, of 1 lesion", "result": 0}, {"measurement": "Colon, SA-E Positive lesions", "setting": "[1]; mouse 3, of 1 lesion", "result": 1}, {"measurement": "Small Intestine, SA-E Negative lesions", "setting": "[1]; mouse 3, of 34 lesions", "result": 0}, {"measurement": "Small Intestine, SA-E Positive lesions", "setting": "[1]; mouse 3, of 34 lesions", "result": 34}, {"measurement": "day of 50% decrease in the tumor signal", "setting": "[2]; [6]", "result": 3, "unit": "days"}, {"measurement": "retention of tumor signal", "setting": "[2]; [6]", "result": "still detectable levels even 2 weeks after injection"}, {"measurement": "time at which background signal was mostly cleared", "setting": "[2]; [6]", "result": 2, "unit": "days"}, {"measurement": "total tumor accumulation relative to No‐SA", "setting": "[2]; [6]", "result": "≈ 1.6 fold"}, {"measurement": "time of maximum tumor fluorescence", "setting": "[2]; 4T1 tumor‐bearing mice, ICG conjugated, 50 nmol IV", "result": 11, "unit": "h"}, {"measurement": "retention in the tumor", "setting": "[2]; biodistribution studies, summary in introduction", "result": "more than 2 weeks"}, {"measurement": "maximum TBR", "setting": "[2]; days 2 to 8, 50 nmol IV", "result": "5–6"}, {"measurement": "uptake of 10% Cy5 micelles relative to 100% Cy5 micelles", "setting": "[3]", "result": "no significant difference"}, {"measurement": "cellular uptake with Filipin", "setting": "[4]", "result": "decreased SA‐E uptake to a lesser extent"}, {"measurement": "cellular uptake with Methyl‐β‐cyclodextrin", "setting": "[4]", "result": "Significant decreases"}, {"measurement": "cellular uptake with Wortmannin", "setting": "[4]", "result": "Significant decreases"}, {"measurement": "cellular uptake with bromosulfalein (BSP)", "setting": "[4]", "result": "no change"}, {"measurement": "cellular uptake with cis‐ACBD", "setting": "[4]", "result": "no change"}, {"measurement": "uptake in LDL‐R‐/‐ cells compared to wild type", "setting": "[5]", "result": "did not observe any significant change"}]}]}
